Measured values taken from PubChem BioAssay (NCI).
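Cultured in 96-well plates, cells were exposed to test compound for 48 hours across five concentrations. TGI denotes the concentration required for complete inhibition of growth.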

Tests used:
Experiment in all cases: inhibition of tumour cell growth, NCI panel, 48 h
EKVX NSCLC = system: EKVX NSCLC
786-0 renal = system: 786-0 renal
HCT-116 colon = system: HCT-116 colon
IGROV1 ovarian = system: IGROV1 ovarian
HOP-92 NSCLC = system: HOP-92 NSCLC
COLO 205 colon = system: COLO 205 colon
HOP-62 NSCLC = system: HOP-62 NSCLC
OVCAR-8 ovarian = system: OVCAR-8 ovarian
NCI-H23 lung = system: NCI-H23 lung
ACHN renal = system: ACHN renal
K-562 leukemia = system: K-562 leukemia
SN12C renal = system: SN12C renal
M14 melanoma = system: M14 melanoma
PC-3 prostate = system: PC-3 prostate
UACC-257 melanoma = system: UACC-257 melanoma
A498 renal = system: A498 renal
CCRF-CEM leukemia = system: CCRF-CEM leukemia
MDA-MB-231 breast = system: MDA-MB-231 breast
UO-31 renal = system: UO-31 renal
TK-10 renal = system: TK-10 renal
BT-549 breast = system: BT-549 breast
SK-MEL-5 melanoma = system: SK-MEL-5 melanoma
NCI/ADR-RES ovarian = system: NCI/ADR-RES ovarian
HCT-15 colon = system: HCT-15 colon
DU-145 prostate = system: DU-145 prostate
OVCAR-4 ovarian = system: OVCAR-4 ovarian
SK-MEL-2 melanoma = system: SK-MEL-2 melanoma
HCC-2998 colon = system: HCC-2998 colon
MALME-3M melanoma = system: MALME-3M melanoma
SF-295 CNS = system: SF-295 CNS
NCI-H522 lung = system: NCI-H522 lung
T-47D breast = system: T-47D breast
MOLT-4 leukemia = system: MOLT-4 leukemia
MDA-MB-435 = system: MDA-MB-435
HS 578T breast = system: HS 578T breast
SW-620 colon = system: SW-620 colon
SK-OV-3 ovarian = system: SK-OV-3 ovarian
SF-539 CNS = system: SF-539 CNS
SF-268 CNS = system: SF-268 CNS
UACC-62 melanoma = system: UACC-62 melanoma
A549 NSCLC = system: A549 NSCLC
RPMI-8226 leukemia = system: RPMI-8226 leukemia
NCI-H226 lung = system: NCI-H226 lung
U251 CNS = system: U251 CNS
KM12 colon = system: KM12 colon
MCF7 breast = system: MCF7 breast
RXF 393 renal = system: RXF 393 renal
LOX IMVI melanoma = system: LOX IMVI melanoma
HL-60(TB) leukemia = system: HL-60(TB) leukemia
OVCAR-3 ovarian = system: OVCAR-3 ovarian
SNB-75 CNS = system: SNB-75 CNS
HT29 colon = system: HT29 colon
MDA-N = system: MDA-N
SK-MEL-28 melanoma = system: SK-MEL-28 melanoma
SR leukemia = system: SR leukemia
OVCAR-5 ovarian = system: OVCAR-5 ovarian
SNB-19 CNS = system: SNB-19 CNS
NCI-H460 lung = system: NCI-H460 lung
CAKI-1 renal = system: CAKI-1 renal

CCOC(=O)CC/C(=N/Nc1ccc(Cl)cc1[N+](=O)[O-])C(=O)OCC
TGI (EKVX NSCLC): > 100 µM | TGI (786-0 renal): > 100 µM | TGI (HCT-116 colon): > 100 µM | TGI (IGROV1 ovarian): > 100 µM | TGI (HOP-92 NSCLC): > 100 µM | TGI (COLO 205 colon): > 100 µM | TGI (HOP-62 NSCLC): > 100 µM | TGI (OVCAR-8 ovarian): > 100 µM | TGI (NCI-H23 lung): > 100 µM | TGI (ACHN renal): > 100 µM | TGI (K-562 leukemia): > 100 µM | TGI (SN12C renal): > 100 µM | TGI (M14 melanoma): > 100 µM | TGI (PC-3 prostate): > 100 µM | TGI (UACC-257 melanoma): > 100 µM | TGI (A498 renal): > 100 µM | TGI (CCRF-CEM leukemia): > 100 µM | TGI (MDA-MB-231 breast): > 100 µM | TGI (UO-31 renal): > 100 µM | TGI (TK-10 renal): > 100 µM | TGI (BT-549 breast): > 100 µM | TGI (SK-MEL-5 melanoma): > 100 µM | TGI (NCI/ADR-RES ovarian): > 100 µM | TGI (HCT-15 colon): > 100 µM | TGI (DU-145 prostate): > 100 µM | TGI (OVCAR-4 ovarian): > 100 µM | TGI (SK-MEL-2 melanoma): > 100 µM | TGI (HCC-2998 colon): 71.5 µM | TGI (MALME-3M melanoma): > 100 µM | TGI (SF-295 CNS): > 100 µM | TGI (NCI-H522 lung): > 100 µM | TGI (T-47D breast): > 100 µM | TGI (MOLT-4 leukemia): > 100 µM | TGI (MDA-MB-435): > 100 µM | TGI (HS 578T breast): > 100 µM | TGI (SW-620 colon): > 100 µM | TGI (SK-OV-3 ovarian): > 100 µM | TGI (SF-539 CNS): > 100 µM | TGI (SF-268 CNS): > 100 µM | TGI (UACC-62 melanoma): > 100 µM | TGI (A549 NSCLC): > 100 µM | TGI (RPMI-8226 leukemia): > 100 µM | TGI (NCI-H226 lung): > 100 µM | TGI (U251 CNS): > 100 µM | TGI (KM12 colon): > 100 µM | TGI (MCF7 breast): > 100 µM | TGI (RXF 393 renal): > 100 µM | TGI (LOX IMVI melanoma): > 100 µM | TGI (HL-60(TB) leukemia): > 100 µM | TGI (OVCAR-3 ovarian): > 100 µM | TGI (SNB-75 CNS): > 100 µM | TGI (HT29 colon): > 100 µM | TGI (MDA-N): > 100 µM | TGI (SK-MEL-28 melanoma): > 100 µM | TGI (SR leukemia): > 100 µM | TGI (OVCAR-5 ovarian): > 100 µM | TGI (SNB-19 CNS): > 100 µM | TGI (NCI-H460 lung): > 100 µM

COc1ccc(/C=N/NC(=O)c2ccc(O)c(CN(C)C)c2)cc1
TGI (EKVX NSCLC): > 100 µM | TGI (786-0 renal): > 100 µM | TGI (HCT-116 colon): > 100 µM | TGI (IGROV1 ovarian): > 100 µM | TGI (HOP-92 NSCLC): > 100 µM | TGI (COLO 205 colon): > 100 µM | TGI (HOP-62 NSCLC): > 100 µM | TGI (OVCAR-8 ovarian): > 100 µM | TGI (NCI-H23 lung): > 100 µM | TGI (ACHN renal): > 100 µM | TGI (K-562 leukemia): > 100 µM | TGI (SN12C renal): > 100 µM | TGI (M14 melanoma): > 100 µM | TGI (PC-3 prostate): > 100 µM | TGI (UACC-257 melanoma): > 100 µM | TGI (A498 renal): 37.4 µM | TGI (CCRF-CEM leukemia): > 100 µM | TGI (MDA-MB-231 breast): > 100 µM | TGI (UO-31 renal): > 100 µM | TGI (TK-10 renal): > 100 µM | TGI (BT-549 breast): > 100 µM | TGI (SK-MEL-5 melanoma): > 100 µM | TGI (NCI/ADR-RES ovarian): > 100 µM | TGI (HCT-15 colon): > 100 µM | TGI (DU-145 prostate): > 100 µM | TGI (OVCAR-4 ovarian): > 100 µM | TGI (SK-MEL-2 melanoma): > 100 µM | TGI (CAKI-1 renal): > 100 µM | TGI (HCC-2998 colon): > 100 µM | TGI (MALME-3M melanoma): > 100 µM | TGI (SF-295 CNS): > 100 µM | TGI (NCI-H522 lung): 90.3 µM | TGI (T-47D breast): > 100 µM | TGI (MOLT-4 leukemia): > 100 µM | TGI (MDA-MB-435): > 100 µM | TGI (HS 578T breast): > 100 µM | TGI (SW-620 colon): > 100 µM | TGI (SK-OV-3 ovarian): > 100 µM | TGI (SF-539 CNS): > 100 µM | TGI (SF-268 CNS): > 100 µM | TGI (UACC-62 melanoma): > 100 µM | TGI (A549 NSCLC): > 100 µM | TGI (NCI-H226 lung): > 100 µM | TGI (U251 CNS): > 100 µM | TGI (KM12 colon): > 100 µM | TGI (MCF7 breast): > 100 µM | TGI (RXF 393 renal): > 100 µM | TGI (LOX IMVI melanoma): > 100 µM | TGI (HL-60(TB) leukemia): > 100 µM | TGI (OVCAR-3 ovarian): > 100 µM | TGI (HT29 colon): > 100 µM | TGI (MDA-N): > 100 µM | TGI (SK-MEL-28 melanoma): > 100 µM | TGI (SR leukemia): > 100 µM | TGI (OVCAR-5 ovarian): > 100 µM | TGI (SNB-19 CNS): > 100 µM | TGI (NCI-H460 lung): > 100 µM
